This note sets out measurements from US9206124B2, “Treatment of drug-resistant cancer with 2-aryl-2-(3-indolyl) acetohydroxamates” (New Mexico Technical Research Foundation, priority 2013, dated 2015).

In assay [1] the test system is HeLa cervical adenocarcinoma cells. The experiment in a line: MTT antiproliferative assay, HeLa. It counts as cell-based. As to conditions: Homo sapiens, Table 2, 48 h treatment, ± SD, read-out: cell viability GI50, HeLa. An excerpt: (§1) This finding led to an exploration of the SAR analyses by synthesizing the first generation compounds 3 containing diverse substituents at different positions in the 2-aryl-2-(3-indolyl)acetohydroxamate skeleton and testing this series for in vitro growth inhibition using the MTT colorimetric assay against two cell lines, human HeLa cervical and MCF-7 breast adenocarcinomas (Table 1). It emerged from these experiments that the substitution on the benzene ring of the indole moiety (R^2≠H) was not tolerated (e.g., 3abfa and 3acfa), whereas the nitrogen could be derivatized (R^1≠H) with only a small activity drop (e.g., 3bafa vs 3aafa).
(§2) Human cancer cell lines were obtained from the American Type Culture Collection (ATCC, Manassas, Va., USA), the European Collection of Cell Culture (ECACC, Salisbury, UK) and the Deutsche Sammlung von Mikroorganismen and Zellkulturen (DSMZ, Braunschweig, Germany). Human cervical adenocarcinoma HeLa cells were cultured in DMEM supplemented with 10% fetal bovine serum (FBS). Human mammary carcinoma MCF-7 cells were cultured in RPMI supplemented with 10% FBS. The U87 cells (ATCC HTB-14) were cultured in DMEM culture medium, while the A549 cells (DSMZ ACC107) were cultured in RPMI culture medium supplemented with 10% heat-inactivated FBS. The glioblastoma multiforme Hs683 (ATCC HTB-138) and the T98G (ATCC CRL-1690) cell lines were cultivated in DMEM supplemented with 10% FBS. The Human uterine sarcoma MES-SA and MES-SA/Dx5 cells were cultured in RPMI-1640 medium supplemented with 10% FBS with MES SA/Dx5 maintained in the presence of 500 nM Doxorubicin (Sigma). SKMEL-28 cells (ATCC HTB72) and U373 glioblastoma cells (ECACC 08061901) were cultured in RPMI culture medium supplemented with 10% heat-inactivated FBS. Cell culture media were supplemented with 4 mM glutamine (Lonza code BE17-605E), 100 μg/mL gentamicin (Lonza code 17-5182), and penicillin-streptomycin (200 units/ml and 200 μg/ml) (Lonza code 17-602E). Neurosphere culture GBM 031810 was established using known methods and maintained in Neurobasal medium (Invitrogen Carlsbad, Calif.) with B27 supplement (20 ul/ml; Invitrogen), Glutamax (10 ul/ml; Invitrogen), fibroblast growth factor-2 (20 ng/ml; Peprotech, Rocky Hill, N.J., USA), epidermal growth factor (20 ng/ml; Peprotech), heparin (32 IE/ml; Sigma Aldrich, St. Louis, Mo.), and penicillin-streptomycin (1×, Invitrogen). Growth factors and heparin were renewed twice weekly. All cell lines were cultured in T25 flasks, maintained and grown at 37° C., 95% humidity, 5% CO2.
(§3) Antiproliferative properties of the synthesized compounds were evaluated by the MTT assay. All compounds were dissolved in DMSO at a concentration of either 100 mM or 50 mM prior to cell treatment. The cells were trypsinized and seeded at 4×10^3 cells per well into 96-well plates. The cells were grown for 24 h, treated with compounds at concentrations ranging from 0.001 to 100 μM and incubated for 48 h in 200 μL media. 20 μL of MTT reagent in serum free medium (5 mg/mL) was added to each well and incubated further for 2 h. Media was removed and the resulting formazan crystals were re-solubilized in 200 μL of DMSO. A490 was measured using a Molecular Devices Thermomax plate reader. The experiments were performed in quadruplicate and repeated at least twice for each compound per cell line. Cells treated with 0.1% DMSO were used as a negative control; 1 μM phenyl arsine oxide (PAO) was used as a positive control.
For orientation: Tetrazolium dyes change colour on reduction, which living cells bring about.

For assay [2], the system named is MCF-7 breast adenocarcinoma cells. The experiment in a line: MTT antiproliferative assay, MCF-7. Format: cell-based. As to conditions: Homo sapiens, MCF7, Table 2, 48 h treatment, ± SD, read-out: cell viability GI50, MCF7.
Description: as §1, §2, §3

Assay [3] relates to Hs683 anaplastic oligodendroglioma cells. As to the kind of experiment: MTT antiproliferative assay, Hs683. Format: cell-based. As to conditions: Homo sapiens, Hs 683, 48 h treatment, ± SD, apoptosis-sensitive reference, read-out: GI50 in vitro, Hs683. How it is done: (§4) As part of the ongoing efforts aimed at identification of compounds active against cancer cells displaying resistance to proapoptotic agents, the selected 2-aryl-2-(3-indolyl)-acetohydroxamates were evaluated for in vitro growth inhibition against a panel of additional cancer cell lines including those resistant to various proapoptotic stimuli, such as human T98G and U87 glioblastoma and human A549 non-small-cell-lung cancer (NSCLC), as well as an apoptosis-sensitive tumor model, such as human Hs683 anaplastic oligodendroglioma, used as a reference. The data reveal that for the most part these compounds retain the single-digit antiproliferatve GI50 values in this challenging cancer cell panel.
as §2, §3

Assay [4] relates to U87 glioblastoma cells. The experiment in a line: MTT antiproliferative assay, U87. As to conditions: for GI50: Homo sapiens, 48 h treatment, MTT, ± SD, read-out: GI50 in vitro, U87. Format: cell-based, human. How it is done:
as §4, §2, §3

Assay [5] has as its system T98G glioblastoma cells. The experiment in a line: MTT antiproliferative assay, T98G. As to conditions: Homo sapiens, 48 h treatment, ± SD, read-out: GI50 in vitro, T98G. Format: cell-based. How it is done:
as §4, §2, §3

Assay [6] deals with A549 non-small-cell-lung cancer cells. The experiment in a line: MTT antiproliferative assay, A549. Format: cell-based, human. As to conditions: for GI50: Homo sapiens, A549, 48 h treatment, MTT, ± SD, read-out: GI50 in vitro, A549. How it is done:
as §4, §2, §3

The subject of assay [7] is MES-SA uterine sarcoma cells. The experiment in a line: MTT antiproliferative assay, MES-SA. It counts as cell-based. As to conditions: Homo sapiens, 48 h treatment, ± SD, read-out: GI50 in vitro, MES-SA. How it is done:
Compared with the intrinsic drug resistance, as described above for such cancers as glioblastoma and melanoma, a large variety of tumors can also develop resistance to anticancer drugs resulting in MDR as explained previously. To assess whether the hydroxamates can overcome this resistance mechanism, selected hydroxamates were tested against MDR cells (Table 4). The MDR uterine sarcoma cell line MES-SA/Dx5 was utilized for this experiment. This cell line was established from the parent uterine sarcoma MES-SA, grown in the presence of increasing concentrations of doxorubicin and known to be resistant to a number of P-gp substrates. […] In contrast, there was only a small variation in the sensitivities of the two cell lines towards the hydroxamates indicating their potential to overcome clinical multi-drug resistance.
as §2, §3

Assay [8] has as its system MES-SA/Dx5 MDR uterine sarcoma cells. As to the kind of experiment: MTT antiproliferative assay, MDR MES-SA/Dx5. It counts as cell-based, human. As to conditions: for GI50: Homo sapiens, MES-SA/Dx5, 48 h treatment, MTT, ± SD, MDR line, read-out: GI50 in vitro, MES-SA/Dx5. How it is done:
Compared with the intrinsic drug resistance, as described above for such cancers as glioblastoma and melanoma, a large variety of tumors can also develop resistance to anticancer drugs resulting in MDR as explained previously. To assess whether the hydroxamates can overcome this resistance mechanism, selected hydroxamates were tested against MDR cells (Table 4). The MDR uterine sarcoma cell line MES-SA/Dx5 was utilized for this experiment. This cell line was established from the parent uterine sarcoma MES-SA, grown in the presence of increasing concentrations of doxorubicin and known to be resistant to a number of P-gp substrates.
as §2, §3
Selection of the MES-SA/Dx5 cell line was done according to W. G. Harker and B. I. Sikic, Cancer Res. 1985, p. 45, 4091. The cells were split and allowed to adhere overnight. […] The cells were maintained at this DOX concentration until their growth rate reached that of the untreated cells.

Assay [9] concerns GBM 031810 neurosphere cells. The experiment in a line: Antiproliferative effect on patient-derived GBM neurosphere culture. Format: cell-based. As to conditions: Homo sapiens, average IC50 ± SD from three determinations, read-out: GI50 in vitro, GBM 031810 (average IC50).
Description: Given the ability of the hydroxamates to overcome drug resistance a few select compounds were further evaluated against glioma cells grown in neurosphere conditions, which are known to promote the growth of stem-like cells from human glioma tissue. Indeed, the neurospheres show the ability of self-renewal by regrowing in culture from individual cells, and can differentiate into multiple neural lineages and recapitulate human gliomas on both histological and genetic levels more faithfully than serum cultured glioma cell lines when injected into the brains of mice. Because, neurosphere cells are generally resistant to radiation and chemotherapy, the micromolar to submicromolar activity of the hydroxamates against the glioma neurosphere cell cultures is noteworthy (Table 4). […] It is worthy of note, that the unmethylated MGMT promoter leading to such temozolomide resistance is found in about half of all GBM patients, who respond poorly to temozolomide chemotherapy. To date, no alternative treatment exists for this group of patients.
as §2, with “Growth factors and heparin were renewed twice weekly. All cell lines were cultured in T25 flasks, maintained and grown at 37° C., 95% humidity, 5% CO2.” left out

For assay [10], the system named is HeLa cervical and MCF-7 breast adenocarcinomas. The experiment in a line: In vitro growth inhibition (MTT). It counts as cell-based, human. As to conditions: HeLa and MCF-7.
Description: as §1, §3

[11] abbreviates: FIG. 3, increasing concentration.

“Also recorded” adds a separate entry of the source.

Usually IC50 stands for the concentration needed to halve the response being measured.

Regarding `CC(C)c1ccc(C(C(=O)NO)c2c(-c3ccc4ccccc4c3)[nH]c3ccccc23)cc1` (centres unmarked) [Compound 3aafe], the GI50 in assay [1] came out at 0.68 ± 0.04 µM; in assay [2], 1.4 ± 0.1 µM; in assay [3], 6.1 ± 1 µM; in assay [4], 5 ± 0.5 µM; in assay [5], 8.8 ± 0.5 µM; in assay [6], 3.3 ± 0.6 µM. In addition, the GI50 in assay [7] is 1.7 ± 0.4 µM; in [8], 4.9 ± 1.9 µM. In addition, in assay [9], the IC50 turned out to be 3.4 ± 0.7 µM. Moreover, in [10], the “antiproliferative potency (GI50)” value is reported as “single-digit micromolar; also recorded: submicromolar”.

In the case of `Cc1ccc(C(C(=O)NO)c2c(-c3ccc4ccccc4c3)[nH]c3ccccc23)cc1C` (centres unmarked) [Compound 3aafk], the GI50 in [1] was determined as 2.7 ± 0.1 µM; in assay [2] it was 2.5 ± 0.1 µM; in [3], 4.7 ± 1 µM; in [4] it was 6.7 ± 1.5 µM; in assay [5], 7.5 ± 0.8 µM; in assay [6], 2.9 ± 0.6 µM. The GI50 in assay [7] was 1.8 ± 0.4 µM; in assay [8], 2.2 ± 0.8 µM. The “antiproliferative potency (GI50)” value in [10] is reported as “single-digit micromolar”.

For the compound `CN(C)c1ccc(C(C(=O)NO)c2c(-c3ccc4ccccc4c3)[nH]c3ccccc23)cc1` (centres unmarked) [Compound 3aafp], the GI50 was 0.6 ± 0.02 µM in assay [1]; 1.1 µM in assay [2]; 5.1 ± 0.5 µM in assay [3]; 21.3 ± 1.6 µM in assay [4]; 1.9 ± 0.2 µM in assay [5]; 1.5 ± 0.3 µM in assay [6]. Moreover, the GI50 in assay [7] came out at 0.8 ± 0.1 µM; in assay [8], 1.6 ± 0.6 µM. For the same compound, in assay [4] (setting [11]), the “activity against cell populations resistant to proapoptotic agents, U87” value is recorded as “potent growth inhibitory properties against most of the cells”. In addition, the “activity against cell populations resistant to proapoptotic agents, A549” value in [6] (setting [11]) was “potent growth inhibitory properties against most of the cells”. For the same compound, in [9], the IC50 came to 5.6 ± 0.8 µM. Further, in assay [10], the “antiproliferative potency (GI50)” value is reported as “single-digit micromolar; also recorded: submicromolar”.

`CCCCn1c(-c2ccc3ccccc3c2)c(C(C(=O)NO)c2ccccc2)c2ccccc21` (centres unmarked) [Compound 3cafa]: the GI50 in [1] came to 5.6 ± 0.3 µM; in assay [2] it was 7.8 ± 0.6 µM; in assay [3] it was 10.8 ± 0.5 µM; in assay [4], 6.7 ± 0.3 µM; in assay [5] it was 12.3 ± 0.8 µM; in assay [6], 5.7 ± 0.5 µM. In addition, the figures for the GI50 in assay [7] and in assay [8] were 5.9 ± 1.7 µM and 2.7 ± 0.3 µM, respectively. In addition, the “antiproliferative potency (GI50)” value in [10] is “single-digit micromolar”.

With `O=C(NO)C(c1ccccc1)c1c(-c2ccc3ccccc3c2)n(Cc2ccccc2)c2ccccc12` (centres unmarked) [Compound 3eafa], the GI50 in assay [1] is 5.4 ± 0.3 µM; in assay [2] it was 5.5 ± 0.2 µM; in assay [3], 11.2 ± 0.9 µM; in assay [4] it was 9.1 ± 0.3 µM; in assay [5] it was 10.6 ± 0.4 µM; in assay [6], 5.8 ± 0.8 µM. The GI50 came to 7.1 ± 0.1 µM in [7] and 8.5 ± 0.9 µM in [8]. In addition, the “antiproliferative potency (GI50)” value in assay [10] is on record as “single-digit micromolar”.

For the compound `Cn1nnc2c(C(N)=O)ncn2c1=O` [Temozolomide, reference compound], the IC50 in assay [9] was over 1000 µM.

As for `CC[C@]1(O)C[C@@H]2CN(CCc3c([nH]c4ccccc34)[C@@](C(=O)OC)(c3cc4c(cc3OC)N(C)[C@H]3[C@@](O)(C(=O)OC)[C@H](OC(C)=O)[C@]5(CC)C=CCN6CC[C@]43[C@@H]65)C2)C1` [Vinblastine, reference compound], the GI50 in assay [7] came out at 0.006 ± 0.001 µM; in assay [8], 5 ± 1.4 µM. Also, in [8] (MDR line compared with parent line), the “change in potency, MDR MES-SA/Dx5 versus parent MES-SA” value is “more than a thousand fold drop in potency”.
